Data published in patent US20230120564A1, “PYRIDO[3,4-D]PYRIMIDINE DERIVATIVE AND THERAPEUTIC PHARMACEUTIC COMPOSITION COMPRISING SAME” (KOREA INSTITUTE OF SCIENCE AND TECHNOLOGY, priority 2020, published 2023).

Legend:
GCK = target: T1, GCK (Homo sapiens, UniProt Q12851); experiment: Kinase inhibitory activity, IC50; format: biochemical
T1 sequence (Q12851 1-820): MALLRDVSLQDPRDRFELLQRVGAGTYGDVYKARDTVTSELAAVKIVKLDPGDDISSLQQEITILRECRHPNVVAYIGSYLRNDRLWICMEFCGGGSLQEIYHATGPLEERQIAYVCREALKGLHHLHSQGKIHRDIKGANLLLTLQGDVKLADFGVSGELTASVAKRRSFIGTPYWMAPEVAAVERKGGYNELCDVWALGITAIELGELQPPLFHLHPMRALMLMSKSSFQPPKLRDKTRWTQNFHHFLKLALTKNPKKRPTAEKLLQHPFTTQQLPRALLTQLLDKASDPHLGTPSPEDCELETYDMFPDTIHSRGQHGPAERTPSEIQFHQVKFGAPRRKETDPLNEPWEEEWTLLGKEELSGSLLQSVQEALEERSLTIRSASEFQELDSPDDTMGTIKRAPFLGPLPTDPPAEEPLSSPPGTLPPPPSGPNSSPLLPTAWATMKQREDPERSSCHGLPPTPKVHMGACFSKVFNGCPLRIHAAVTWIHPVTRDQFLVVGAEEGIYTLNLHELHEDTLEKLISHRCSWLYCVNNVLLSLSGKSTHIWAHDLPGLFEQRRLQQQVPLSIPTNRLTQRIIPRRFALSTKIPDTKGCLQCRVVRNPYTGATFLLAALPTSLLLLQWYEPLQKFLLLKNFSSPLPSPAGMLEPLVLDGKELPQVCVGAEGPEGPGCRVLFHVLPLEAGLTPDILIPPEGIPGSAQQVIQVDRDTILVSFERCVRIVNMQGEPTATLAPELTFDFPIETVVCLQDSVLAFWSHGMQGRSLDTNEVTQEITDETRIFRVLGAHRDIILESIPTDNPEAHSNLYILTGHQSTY
Protocol: (§1) The inhibitory activities of the compounds of the present invention against two kinases, GCK and ACK1, were measured, and the IC50 values thereof were calculated. As a control, the following compound GNF7 was used.

ACK1 = ACK1 (Homo sapiens, UniProt Q07912); experiment: Kinase inhibitory activity, IC50; format: biochemical
Protocol: as §1

OCI-AML3 (N-Ras Q61L) = experiment: Inhibition of cell proliferation (GI50); format: cell-based; details: Homo sapiens, OCI-AML-3; OCI-AML3 cell line; read-out: Proliferation inhibitory activity (GI50, μM) OCI-AML3 (N-Ras Q61L)
Protocol: (§2) The inhibitory activities of the compounds of the present invention against the proliferation of the mt-NRAS (G12D) Ba/F3 and […] (mt-NRAS) cell lines were measured and the GI50 values thereof were calculated.
Referring to the results in Table 2, it can be seen that the compound of the present invention has inhibitory activity against the proliferation of the human acute myeloid leukemia cell line (OCI-AML3) having the NRAS mutant gene, and the effect thereof is remarkable. Therefore, it can be seen that the compound of the present invention is particularly effective as a therapeutic agent for acute myeloid leukemia (AML).

Ba/F3 (parental) = experiment: Inhibition of cell proliferation (GI50); format: cell-based; details: Mus musculus, BaF3; Ba/F3 (parental) cell line; read-out: Proliferation inhibitory activity (GI50, μM) Ba/F3 (parental)
Protocol: The inhibitory activities of the compounds of the present invention against the proliferation of the Ba/F3 (parental) cell line were measured and the GI50 values thereof were calculated.

Ba/F3 (N-Ras G12D) = experiment: Inhibition of cell proliferation (GI50); format: cell-based; details: Mus musculus, BaF3; mt-NRAS (G12D) Ba/F3 cell line; read-out: Proliferation inhibitory activity (GI50, μM) Ba/F3 (N-Ras G12D)
Protocol: as §2

ACK1, sequence (Q07912 whole entry): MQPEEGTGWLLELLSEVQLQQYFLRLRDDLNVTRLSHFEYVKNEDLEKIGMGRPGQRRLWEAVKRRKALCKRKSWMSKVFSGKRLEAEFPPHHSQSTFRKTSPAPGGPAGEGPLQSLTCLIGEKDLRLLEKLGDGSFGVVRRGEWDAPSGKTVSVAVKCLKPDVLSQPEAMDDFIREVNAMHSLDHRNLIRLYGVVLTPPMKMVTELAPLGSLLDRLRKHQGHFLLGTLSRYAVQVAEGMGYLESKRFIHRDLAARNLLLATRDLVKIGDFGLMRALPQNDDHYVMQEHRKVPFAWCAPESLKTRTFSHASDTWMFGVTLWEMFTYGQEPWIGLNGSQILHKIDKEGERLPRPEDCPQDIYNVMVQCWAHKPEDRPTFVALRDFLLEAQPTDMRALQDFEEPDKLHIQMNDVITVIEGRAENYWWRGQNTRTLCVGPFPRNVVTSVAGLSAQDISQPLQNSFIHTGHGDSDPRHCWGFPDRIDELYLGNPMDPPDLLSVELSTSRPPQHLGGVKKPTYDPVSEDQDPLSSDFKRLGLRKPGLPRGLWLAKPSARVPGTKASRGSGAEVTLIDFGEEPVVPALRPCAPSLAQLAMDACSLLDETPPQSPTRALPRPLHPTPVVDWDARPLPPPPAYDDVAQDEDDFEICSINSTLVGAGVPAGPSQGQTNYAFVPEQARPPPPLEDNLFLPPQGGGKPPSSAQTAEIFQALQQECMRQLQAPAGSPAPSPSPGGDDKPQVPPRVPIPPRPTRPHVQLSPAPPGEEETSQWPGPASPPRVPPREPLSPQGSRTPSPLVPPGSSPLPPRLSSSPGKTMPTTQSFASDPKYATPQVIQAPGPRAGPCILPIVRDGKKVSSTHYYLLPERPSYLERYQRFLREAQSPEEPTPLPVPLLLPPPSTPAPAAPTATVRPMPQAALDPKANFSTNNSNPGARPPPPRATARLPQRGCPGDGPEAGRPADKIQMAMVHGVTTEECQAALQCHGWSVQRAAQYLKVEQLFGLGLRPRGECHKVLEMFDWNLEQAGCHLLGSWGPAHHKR

IC50 (GCK) | IC50 (ACK1) | GI50 (OCI-AML3 (N-Ras Q61L)) | GI50 (Ba/F3 (N-Ras G12D)) | SMILES | GI50 (Ba/F3 (parental))
> 10 µM | 0.1 to 1 µM | < 0.5 µM | < 0.5 µM | Cc1ccc(Nc2ncc3cc(-c4cc(NC(=O)c5cccc(C(F)(F)F)c5)ccc4C)nc(Cl)c3n2)cn1 [Compound No. 1, N-(3-(8-chloro-2-((6-methylpyridin-3-yl)amino)pyrido[3,4-d]pyrimidin-6-yl)-4-methylphenyl)-3-(trifluoromethyl)benzamide] | > 5 µM
– | – | 0.5 to 3 µM | < 0.5 µM | C=Cc1nc(-c2cc(NC(=O)c3cccc(C(F)(F)F)c3)ccc2C)cc2cnc(Nc3ccc(C)nc3)nc12 [Compound No. 2, N-(4-methyl-3-(2-((6-methylpyridin-3-yl)amino)-8-vinylpyrido[3,4-d]pyrimidin-6-yl)phenyl)-3-(trifluoromethyl)benzamide] | 3 to 5 µM
> 10 µM | 0.1 to 1 µM | 0.5 to 3 µM | 0.5 to 3 µM | CCc1nc(-c2cc(NC(=O)c3cccc(C(F)(F)F)c3)ccc2C)cc2cnc(Nc3ccc(C)nc3)nc12 [Compound No. 3, N-(3-(8-ethyl-2-((6-methylpyridin-3-yl)amino)pyrido[3,4-d]pyrimidin-6-yl)-4-methylphenyl)-3-(trifluoromethyl)benzamide] | > 5 µM
– | – | < 0.5 µM | 0.5 to 3 µM | COc1nc(-c2cc(NC(=O)c3cccc(C(F)(F)F)c3)ccc2C)cc2cnc(Nc3ccc(C)nc3)nc12 [Compound No. 8, N-(3-(8-methoxy-2-((6-methylpyridin-3-yl)amino)pyrido[3,4-d]pyrimidin-6-yl)-4-methylphenyl)-3-(trifluoromethyl)benzamide] | 3 to 5 µM
– | – | < 0.5 µM | < 0.5 µM | Cc1ccc(Nc2ncc3cc(-c4cc(NC(=O)c5ccc(CN6CCOCC6)c(C(F)(F)F)c5)ccc4C)ncc3n2)cn1 [Compound No. 12, N-(4-methyl-3-(2-((6-methylpyridin-3-yl)amino)pyrido[3,4-d]pyrimidin-6-yl)phenyl)-4-(morpholinemethyl)-3-(trifluoromethyl)benzamide] | > 5 µM
– | – | < 0.5 µM | < 0.5 µM | Cc1ccc(Nc2ncc3cc(-c4cc(NC(=O)c5cc(-n6cnc(C)c6)cc(C(F)(F)F)c5)ccc4C)ncc3n2)cn1 [Compound No. 13, 3-(4-methyl-1H-imidazol-1-yl)-N-(4-methyl-3-(2-((6-methylpyridin-3-yl)amino)pyrido[3,4-d]pyrimidin-6-yl)phenyl)-5-(trifluoromethyl)benzamide] | > 5 µM
– | – | < 0.5 µM | < 0.5 µM | Cc1ccc(Nc2ncc3cc(-c4cc(NC(=O)c5cc(N6CCOCC6)cc(C(F)(F)F)c5)ccc4C)ncc3n2)cn1 [Compound No. 14, N-(4-methyl-3-(2-((6-methylpyridin-3-yl)amino)pyrido[3,4-d]pyrimidin-6-yl)phenyl)-3-morpholino-5-(trifluoromethyl)benzamide] | 0.5 to 3 µM
– | – | < 0.5 µM | < 0.5 µM | Cc1ccc(NC(=O)c2cccc(C(F)(F)F)c2)cc1-c1cc2cnc(N)nc2cn1 [Compound No. 17, N-(3-(2-aminopyrido[3,4-d]pyrimidin-6-yl)-4-methylphenyl)-3-(trifluoromethyl)benzamide] | > 5 µM
0.1 to 1 µM | 0.1 to 1 µM | < 0.5 µM | < 0.5 µM | Cc1ccc(NC(=O)c2cccc(C(F)(F)F)c2)cc1-c1cc2cnc(NCCO)nc2cn1 [Compound No. 18, N-(3-(2-((2-hydroxyethyl)amino)pyrido[3,4-d]pyrimidin-6-yl)-4-methylphenyl)-3-(trifluoromethyl)benzamide] | > 5 µM
0.1 to 1 µM | 0.1 to 1 µM | < 0.5 µM | < 0.5 µM | Cc1ccc(NC(=O)c2cccc(C(F)(F)F)c2)cc1-c1cc2cnc(NC3CC3)nc2cn1 [Compound No. 19, N-(3-(2-(cyclicpropylamino)-pyrido[3,4-d]pyrimidin-6-yl)-4-methylphenyl)-3-(trifluoromethyl)benzamide] | 0.5 to 3 µM
– | – | < 0.5 µM | < 0.5 µM | Cc1ccncc1Nc1ncc2cc(-c3cc(NC(=O)c4cccc(C(F)(F)F)c4)ccc3C)ncc2n1 [Compound No. 23, N-(4-methyl-3-(2-((4-methylpyridin-3-yl)amino)pyrido[3,4-d]pyrimidin-6-yl)phenyl)-3-(trifluoromethyl)benzamide] | < 0.5 µM
– | – | < 0.5 µM | < 0.5 µM | Cc1ccc(Nc2ncc3cc(-c4cc(NC(=O)c5cccc(C(F)(F)F)c5)ccc4C)ncc3n2)c(C)n1 [Compound No. 24, N-(3-(2-((2,6-dimethylpyridin-3-yl)amino)pyrido[3,4-d]pyrimidin-6-yl)-4-methylphenyl)-3-(trifluoromethyl)benzamide] | > 5 µM
< 0.1 µM | < 0.1 µM | < 0.5 µM | 0.5 to 3 µM | Cc1ccc(Nc2ncc3c(n2)N(C)C(=O)N(c2cc(NC(=O)c4cccc(C(F)(F)F)c4)ccc2C)C3)cn1 [GNF 7, reference compound] | 3 to 5 µM
